Entries after “also recorded” stand apart in the source; their conditions may differ. Where two headings read alike, the source gives them in different places. Where no end group is shown, it is not given here.
What was measured:
[1] = tested on: avidin-agarose; experiment: Avidin-agarose precipitation of fluoresceinated and biotinylated amylin substrates; assay type: binding; conditions: for precipitation by / binding to avidin(-agarose) of uncleaved substrate: uncleaved substrate (- IDE), 1 μM, fluorescence read-out
Description: In previous work, we developed robust proteolytic degradation assays for Aβ [18] and glucagon on the basis of synthetic versions of these substrates containing fluorescein at the N‑terminus and biotin (in the form of Lys(Ahx-biotin)) at the C-terminus. This general approach enables a facile method for detecting hydrolysis, which we call avidin-agarose precipitation (AP). Briefly, hydrolysis can be readily quantified by removing the intact (biotinylated and fluoresceinated) substrates with avidin-agarose, then quantifying the remaining (fluoresceinated only) proteolytic fragments by fluorescence. This approach has the advantage of being readily implementable in any laboratory equipped with a fluorescence reader. Although convenient, the AP protocol requires centrifugation and liquid transfer steps that make it less amenable to high-throughput or robotized applications (Figure 1a).
Because the C-terminal portion of human amylin is the most aggregation-prone region of the peptide, we hypothesized that strong secondary structure in this area may have rendered the biotin moiety inaccessible to productive interactions with avidin. […] In one version, substrate 2 (Figure 1c; Table 1), we swapped the positions of the fluorescein and biotin groups, while in the other, substrate 3 (Figure 1d; Table 1), we maintained their placement at the N‑ and C-termini, respectively. […] On the basis of these preliminary results, we elected to use substrate 3 for downstream assay development, renaming it FrAB (fluorescein-rodent amylin-biotin). As expected, hydrolysis of FrAB could be readily monitored using the AP protocol, with hydrolysis resulting in a steady increase in fluorescence signal as a function of time in the presence of low quantities of IDE (Figure 1e).

[2] = molecular target: T1, recombinant human IDE (Homo sapiens, UniProt P14735); experiment: Fluorescence change on full cleavage by IDE; assay type: biochemical; design: made in house; conditions: complete hydrolysis by excess IDE, 1 μM substrate, before avidin-agarose precipitation
Description: Substrates were dissolved in DMSO as 1 mM stocks as calculated from the manufacturer-provided weight of lyophylized peptide and its MW, taking into account purity levels. […] The specific activity of recombinant IDE was verified to be within 5% of the value determined from protein concentration (quantified by nanodrop).
For fluorescence-dequenching assays, reactions were typically performed directly in low-volume 384-well microplates, and because the measurements could be monitored continuously, there was no need to stop the reactions. To that end, 3× IDE solution (10 µL) was combined with 3× compound or DMSO (10 µL) and allowed to equilibrate for ≥5 min at room temperature. Reactions were initiated by addition of 3× FrAB substrate (10 µL), typically at 100 nM final concentration. Fluorescence (λex = 336 nm, λem = 490 nm) was monitored repeatedly at frequent intervals (e.g., 30 s) on a multilabel plate reader (SpectraMAX, Molecular Devices, San Jose, CA, USA) using the default fluorescence measurement protocol.

[3] = tested on: insulin-degrading enzyme (IDE); conditions: cited from earlier work
Description: Amylin is a 37-residue peptide with a highly conserved sequence that is present in all mammals. To be fully active, two major post-translational modifications are required: a C-terminal amide (Tyr37) and a disulfide bond between two cysteine residues found at positions 2 and 7 [6]. […] As is true for other amyloidogenic substrates, such as the amyloid β-protein (Aβ), it is likely that multiple amylin proteases exist that work in ... || We also developed a FRET-based fluorescence dequenching assay, which was successful in many respects, but about which some caution is warranted. First, the particular placement of the fluorescing EDANS and quenching DABCYL groups was designed to be optimal for a known cleavage site hydrolyzed by IDE [26]. This particular placement may not be ideal for other amylin proteases, depending on where they cleave the peptide. Secondly, whereas the FrAB-based AP and FP protocols both yielded kinetic parameters close to one another and also similar in magnitude to those obtained for other IDE substrat ...

[4] = tested on: beta-site APP-cleaving enzyme 2 (BACE2); conditions: cited from earlier work
Description: Amylin is a 37-residue peptide with a highly conserved sequence that is present in all mammals. To be fully active, two major post-translational modifications are required: a C-terminal amide (Tyr37) and a disulfide bond between two cysteine residues found at positions 2 and 7 [6]. […] As is true for other amyloidogenic substrates, such as the amyloid β-protein (Aβ), it is likely that multiple amylin proteases exist that work in ...

[5] = Effect of avidin concentration on FP (mP) of FrAB; assay type: binding
Description: To assess the suitability of FrAB to the FP protocol, we measured the degree of depolarization (measured in millipolarization units, mP) in uncleaved versus fully cleaved substrate in the absence or presence of excess avidin. […] Not only was substantially less depolarization observed with the intact substrate alone, but the depolarization was reduced even further by the addition of avidin (Figure 1g). As expected from the preceding results, hydrolysis of FrAB as a function of time could be readily monitored using the FP protocol (Figure 1h).
Avidin (and avidin-agarose) is an expensive reagent, and thus it is valuable to establish the minimum avidin/FrAB ratio necessary for reliable results. To that end, we added varying amounts of avidin to a fixed quantity (100 nM) of both cleaved and uncleaved FrAB and assessed the results using the FP protocol. […] Accordingly, we recommend that a minimum avidin/FrAB ratio of ≈10:1 be used in practice.

[6] = molecular target: T1, recombinant human IDE; conditions: FrAB substrate, AP protocol, 1 nM IDE; mean ± SEM of four independent replications
Description: The specific activity of recombinant IDE was verified to be within 5% of the value determined from protein concentration (quantified by nanodrop).
To ensure homogeneity of solution concentrations, we mixed all solutions well by gentle rocking on a nutator for ≥10 min at room temp (21–23 °C), and dispensed them manually using 16-channel pipettors fitted with 20-µL FinnTip pipette tips. For experiments conducted in 384-well plates, or transfers thereto, mixing was performed by ≥3 rounds of trituration after dispensing of the final solution. […] After we carefully removed the tubes from the centrifuge to avoid disturbing the pelleted avidin-agarose, the supernatant was transferred to low-volume 384-well microplates (30 µL/well), then fluorescence (λex = 485 nm, λem = 515 nm) was read on a multilabel plate reader (SpectraMAX, Molecular Devices, San Jose, CA, USA).
(§1) For all assays, results were normalized to data from negative (0% hydrolysis, no IDE) and positive (100% hydrolysis, excess IDE) controls and, where appropriate, expressed as percent hydrolysis. In the case of AP-based assays, percent hydrolysis was a linear function of the percent maximal change in relative fluorescence (RFU; %ΔRFU) between positive and negative controls. […]

[7] = molecular target: T1, recombinant human IDE; conditions: FrAB substrate, FP protocol (corrected), 1 nM IDE; mean ± SEM of four independent replications
Description: For fluorescence polarization (FP)-based assays, reactions were typically performed directly in low-volume 384-well microplates. To that end, 3× IDE solution (8 µL) was combined with 3× compound or DMSO (8 µL) and allowed to equilibrate for ≥5 min at room temperature. Reactions were initiated by addition of 3× FrAB substrate (8 µL), typically at 100 nM final concentration, except where indicated. After the appropriate incubation period, reactions were terminated by addition of 4× FP Stop Buffer (8 µL; PBS/0.05% biotin-free BSA containing a final concentration of 2 mM 1,10-phenanthroline and 10-fold molar excess avidin (monomer)), triturated ≥3 times to ensure even mixing. […] Fluorescence polarization (λex = 485 nm, λem = 515 nm) was read on a multilabel plate reader (SpectraMAX M5^e, Molecular Devices, San Jose, CA, USA) using the default fluorescence polarization protocol, with the g-factor value maintained at 1.0. high-throughput screening (HTS) being performed manually using a 16-channel pipettor.
as §1

[8] = cited from earlier work
Description: Amylin, also known as islet amyloid polypeptide, is a peptide hormone that is stored in pancreatic beta-cells and co-secreted with insulin in response to many factors, including glucose, arginine, and fatty acids. Amylin plays a role in inhibiting glucagon secretion and delaying gastric emptying as well as modulating other aspects of food processing and satiety.

With “[5-FAM]KCNTATCATQRLANFLVHSSNNFGAILSSTNVGSNTY[Lys(Ahx-biotin)]-amide (disulfide) (5-FAM N-term, Lys(Ahx-biotin) C-term amide, disulfide) [Substrate 1]” the “precipitation by / binding to avidin(-agarose) of uncleaved substrate” value (from here on “precipitation by / binding”) [1] was “biotin does not bind to avidin”, the “precipitation by / binding” value ([1]; listed as substrate 1) was “could not be precipitated by avidin-agarose” and the “fluorescence increase relative to uncleaved substrate (in words)” value [2] was “modest increase in fluorescence”.
In the case of “amylin: 37-residue pancreatic peptide hormone, also known as islet amyloid polypeptide (KCNTATCATQRLANFLVHSSNNFGAILSSTNVGSNTY; not fully specified (C-terminus, bridges); cysteine pairing not given here; UniProt P10997 34-70, looked up)”, the “hydrolysis by IDE” value [3] is listed as “can be hydrolyzed” and the “hydrolysis by BACE2” value [4] is listed as “can be hydrolyzed”.
In the case of “avidin: avidin, a 64-kDa tetramer; egg white avidin [reference compound]”, the EC50 ([5]; avidin (monomer) concentration, uncleaved FrAB 100 nM, FP, n = 4 (mean ± SEM), read-out: apparent EC50 of avidin for increase in mP) is reported as 33.5 ± 7.5 nM and the “avidin concentration at which increase in mP values reaches a plateau” value ([5]; avidin (monomer), 100 nM FrAB, FP protocol) is reported as “≈ 1 µM”.
In the case of fluorescein-rodent amylin-biotin [FrAB], the kcat/KM [6] is reported as “≈ 1 × 10^7 M^-1 s^-1”, the “fluorescence of fully cleaved substrate after avidin-agarose precipitation” value ([1]; fully cleaved by IDE, 1 μM substrate, listed as substrate 3) is reported as “remained constant before and after AP; also recorded: strong fluorescence signal after precipitation” and the “precipitation by / binding” value ([1]; listed as substrate 3) is reported as “readily precipitated by avidin-agarose”. For the same substance, the “depolarization of light by fully cleaved substrate” value ([5]; FrAB 1 μM, fully hydrolyzed (+ IDE) vs. uncleaved, FP) was “significantly more than uncleaved substrate”, the “effect of avidin on mP of fully cleaved substrate” value ([5]; fully cleaved FrAB, 100 nM, FP protocol) was “unaffected by avidin; also recorded: unaffected even by very high concentrations of avidin” and the kcat/KM [7] was “≈ 1 × 10^7 M^-1 s^-1”.
For “glucagon: peptide hormone relevant to glucose homeostasis”, the “degradation by IDE” value [3] is given as “IDE also degrades”.
For “human amylin: aggregation-prone human form of amylin (KCNTATCATQRLANFLVHSSNNFGAILSSTNVGSNTY; not fully specified (C-terminus, bridges); cysteine pairing not given here; UniProt P10997 34-70, looked up)”, the aggregation propensity ([8]; human amylin) is listed as “highly aggregation-prone”.
In the case of “insulin: peptide hormone relevant to glucose homeostasis”, the “degradation by IDE” value [3] is given as “IDE also degrades”.
In the case of “rodent amylin: rodent amylin, far less prone to aggregation than the human peptide”, the aggregation propensity ([8]; rodent amylin vs. human peptide) is listed as “far less prone to aggregation and secondary structure formation than the human peptide”.
